Test results as given in US20230416168A1 (EUROCHEM ANTWERPEN, priority 2020, published 2023).

Test system: Merelbeke soil
Test: In soil nitrification inhibition assay, Merelbeke soil
Settings: for inhibition of ammonium consumption in soil, in words: 50 μM, one week of treatment; for inhibition at 50 µM: soil, 168 h, 7 days, read-out: % Nitrification inhibition in soil (7 days of incubation, Merelbeke soil)
Experimental: Top layer (0 to 10 cm) soil samples were collected from different fields in Belgium (Merelbeke and Moorslede). Vegetation on the field trial was removed and samples were taken from different plots. All soil samples were mixed and sieved (mesh size 2.8 mm) to filter large debris and homogenize soil. The soil was stored at 5° C. in plastic containers covered with Saran foil to prevent changes in microbial community composition and to maintain the original soil water content. Soil water content was determined by drying 20 g soil for 48 h in a 60° C. oven and measuring weight before and after drying. Based on the soil water content (±20%), compound solutions were prepared so that addition of 200 μl compound and 200 μl NH4Cl solution would result in a final compound concentration of 50 μM and a final NH4^+ concentration of 10 mM. Per treatment, 5 small pots were filled with 20 g soil. Next, the soil was treated first with the respective compound solution and then with the NH4Cl solution. Per tray, positive (50 μM DMP) and negative controls (DMSO) were included. Pots were incubated at 21° C. (6 a.m. to 10 p.m. light) for 7 days. Demineralized water was added to the soil every 2 to 3 days to a soil weight of 20 g. In the end, each sample of 20 g soil was dissolved in 100 ml 1M KCl and shaken for 1 hour, followed by filtration through Whatmann® paper. The filtrate was used to measure pH, NH4^+ and NO3− concentrations. The nitrification inhibitors were applied in a nitrification inhibition assay using agricultural soil. In practice, ammonium with or without the new nitrification inhibitors was added to soil from a field in Merelbeke (Belgium). The ammonium level was measured at the start of the experiment and at the end of the experiment, after one week of incubation. A nitrification inhibition percentage was calculated by comparing the reduction in ammonium level with the nitrification inhibitor to the reduction in ammonium without the nitrification inhibitor. Ammonium was added to soil with a high nitrification activity and treated with the nitrification inhibitors (final concentration of 50 μM). […] This validates that the new nitrification inhibitors are effectively inhibiting ammonia oxidation by soil communities.

Compound | inhibition of ammonium consumption in soil, in words | inhibition at 50 µM [%]
CN(Cc1nc2ccccc2s1)CN1CCOC1=S [Example 5, 3-[[1,3-benzothiazol-2-ylmethyl(methyl)amino]methyl]-1,3-oxazolidine-2-thione] | significant inhibition | 14
CN(Cc1c(Cl)nc2sccn12)CN1CCSC1=S [Example 1, 3-[[(6-chloroimidazo[2,1-b][1,3]thiazol-5-yl)methyl-methylamino]methyl]-1,3-thiazolidine-2-thione] | strongly inhibited the ammonium consumption | 60
